Results on one molecule are retold here after US20080255207A1, “5-Thioxo-1,5-Dihydro-2H-Pyrrol-2-One Derivatives As Liver X Receptor Modulators” (ASTRAZENECA AB, priority 2005, published 2008).

SMILES strings stand for the structures.

One assay addresses T1, human LXRalpha (Homo sapiens, UniProt Q13133).
T1 construct: human LXRalpha (amino acid 205-447); expressed in transfected cells; host or cells: U2/OS osteosarcoma cells, electroporated with pSGGAL-LXRalpha
T1 sequence (Q13133 205-447): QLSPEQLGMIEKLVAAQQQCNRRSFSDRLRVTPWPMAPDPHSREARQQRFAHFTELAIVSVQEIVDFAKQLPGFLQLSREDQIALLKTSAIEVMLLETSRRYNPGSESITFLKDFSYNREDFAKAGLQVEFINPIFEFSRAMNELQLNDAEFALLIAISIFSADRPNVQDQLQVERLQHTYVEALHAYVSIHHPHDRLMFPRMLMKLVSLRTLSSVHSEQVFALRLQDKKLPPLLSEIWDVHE
The experiment in a line: Transactivation (reporter gene) assay, GAL4-LXRalpha LBD luciferase in U2/OS cells. The class given is cell-based. The settings on record: U2/OS osteosarcoma cells, 48 h; T0901317 at 1 μM as 100% control. Here is the method:
(§1) Expression vectors were prepared by inserting the ligand binding domain cDNA (complementary DNA) of human LXRalpha (amino acid 205447) and LXRbeta (amino acid 216-461) in frame with, 3′ to the yeast GAL4 transcription factor DNA binding domain and the nuclear localization signal from the T-antigen of Polyoma Virus in the eucaryotic expression vector pSG5 (Stratagene). The resulting expression vectors pSGGAL-LXRalpha and pSGGAL-LXRbeta were used in cotransfection experiments together with the pGL3 luciferase reporter plasmid containing a minirnal SV40 promoter and five copies of the UAS GAL4 recognition site. 2.5 μg pSGGAL-LXRalpha or beta were mixed with 25 μg pGL3 5×UAS and 22.5 μg pBluscript in 0.95 mL ice cold PBS containing approx. 4-9 milj. U2/OS osteosarcoma cells. After a five minute incubation on ice the cell/DNA mixture was electroporated in 0.4 cm cuvettes at 960 μF, 230 V using a BioRad electroporator and diluted to 0.32 milj cells/mL in complete DMEM (Dulbecco's Modified Eagle Medium) medium (Gibco 31966-021). Cells from at least two electroporations were pooled in order to avoid variations between different electroportations. […] Luciferase activity was measured using the “Luminescence 384 protocol” in the Wallac Victor reader after 15 min. incubation at room temperature. […]
On the technique in general: In a reporter assay the amount or activity of a reporter protein is the signal.

Another assay has as its target T2, human LXRbeta (Homo sapiens, UniProt P55055).
T2 construct: LXRbeta (amino acid 216-461); expressed in transfected cells; host or cells: U2/OS osteosarcoma cells, electroporated with pSGGAL-LXRbeta
T2 sequence (P55055 215-460 limits assumed): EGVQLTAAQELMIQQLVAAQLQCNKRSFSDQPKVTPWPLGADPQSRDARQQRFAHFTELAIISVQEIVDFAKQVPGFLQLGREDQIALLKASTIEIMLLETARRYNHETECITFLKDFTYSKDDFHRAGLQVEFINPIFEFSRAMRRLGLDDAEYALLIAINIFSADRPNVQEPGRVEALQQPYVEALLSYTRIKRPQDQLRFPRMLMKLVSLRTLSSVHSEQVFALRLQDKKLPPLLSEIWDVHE
As to the kind of experiment: Transactivation (reporter gene) assay, GAL4-LXRbeta LBD luciferase in U2/OS cells. The class given is cell-based. The note with it: U2/OS osteosarcoma cells, 48 h; T0901317 at 1 μM as 100% control. Here is the method: as §1

The term EC50 denotes the concentration at which the effect is half-maximal. The low end stands for an effect from little substance, the high end for a need for much substance.

For the molecule `Nc1ccc(CN2C(=O)C(Nc3ccc(OC(F)F)cc3)=C(c3ccccc3)C2=S)cn1` [Example 1, 1-[(6-aminopyridin-3-yl)methyl]-3-{[4-(difluoromethoxy)phenyl]amino}-4-phenyl-5-thioxo-1,5-dihydro-2H-pyrrol-2-one], the EC50 on human LXRalpha was 280 nM; at human LXRbeta, 320 nM.
